In data set [1] the test system is A-427. Nature of the data set: Induction of apoptosis in human A-427 cells assessed as viable cells at 400 nM measured for 48 hrs by Annexin V/PI double staining based flow cytometry analysis (reference value: 97.7%). The conditions noted are these: read-out: Activity. The format is functional. (Flow cytometry measures light scatter and fluorescence of single cells or particles in a stream.)

Data set [2] can be described thus: Metabolic stability in mouse liver microsome assessed as parent compound remaining measured at 60 mins by LCMS/MS analysis. It counts as ADME. As to conditions: liver microsomes, read-out: Stability.
Data set [3] has as its target T1, Mitogen-activated protein kinase kinase kinase 19 (Homo sapiens) (UniProt Q56UN5).
T1 sequence (whole entry): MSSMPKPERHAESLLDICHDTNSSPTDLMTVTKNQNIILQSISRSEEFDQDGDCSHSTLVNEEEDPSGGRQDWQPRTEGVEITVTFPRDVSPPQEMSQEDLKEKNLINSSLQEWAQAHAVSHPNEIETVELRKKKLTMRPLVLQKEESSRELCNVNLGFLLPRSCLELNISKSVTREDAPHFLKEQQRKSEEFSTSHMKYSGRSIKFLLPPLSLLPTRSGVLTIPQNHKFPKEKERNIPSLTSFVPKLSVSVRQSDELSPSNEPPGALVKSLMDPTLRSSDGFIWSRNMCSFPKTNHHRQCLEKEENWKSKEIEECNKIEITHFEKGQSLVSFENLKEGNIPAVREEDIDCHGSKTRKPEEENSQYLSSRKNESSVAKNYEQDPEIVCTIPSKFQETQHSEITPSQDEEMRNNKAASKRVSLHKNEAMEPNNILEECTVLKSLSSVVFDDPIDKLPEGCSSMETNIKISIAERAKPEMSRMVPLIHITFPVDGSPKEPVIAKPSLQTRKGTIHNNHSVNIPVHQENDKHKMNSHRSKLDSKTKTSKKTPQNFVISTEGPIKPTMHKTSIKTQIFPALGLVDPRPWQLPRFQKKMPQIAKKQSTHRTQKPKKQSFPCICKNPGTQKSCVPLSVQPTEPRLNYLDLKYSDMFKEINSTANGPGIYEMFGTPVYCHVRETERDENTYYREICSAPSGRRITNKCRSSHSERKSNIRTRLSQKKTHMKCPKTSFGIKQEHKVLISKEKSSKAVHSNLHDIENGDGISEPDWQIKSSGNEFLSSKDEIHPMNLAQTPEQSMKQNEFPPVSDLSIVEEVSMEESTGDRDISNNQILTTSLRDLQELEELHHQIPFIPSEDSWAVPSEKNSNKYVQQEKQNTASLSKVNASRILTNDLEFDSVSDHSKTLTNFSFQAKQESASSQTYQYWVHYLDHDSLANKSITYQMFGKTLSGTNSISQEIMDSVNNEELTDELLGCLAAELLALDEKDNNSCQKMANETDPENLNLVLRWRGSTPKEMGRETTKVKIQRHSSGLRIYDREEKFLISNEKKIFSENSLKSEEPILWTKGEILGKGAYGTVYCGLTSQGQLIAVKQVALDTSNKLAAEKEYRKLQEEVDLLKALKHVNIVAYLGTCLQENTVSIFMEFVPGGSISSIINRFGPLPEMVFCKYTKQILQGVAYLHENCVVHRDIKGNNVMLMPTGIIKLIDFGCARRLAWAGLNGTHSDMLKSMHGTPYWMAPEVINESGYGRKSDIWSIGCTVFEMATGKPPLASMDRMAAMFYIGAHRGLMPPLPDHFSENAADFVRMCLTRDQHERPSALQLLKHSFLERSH
Nature of the data set: Inhibition of MAP3K19 (unknown origin) at 1 uM relative to control.

A short description of data set [4]: Half life in ICR mouse at 1 mg/kg, iv measured upto 24 hrs by LC-MS/MS analysis. It counts as ADME, organism-based. As to conditions: in vivo.
Another data set addresses Wee1-like protein kinase (Homo sapiens, UniProt P30291). The data set is described as follows: Inhibition of human Wee1 (215 to 647 residues) using polyornithine/tyrosine (4:1) as substrate incubated for 5 mins in presence of ATP by micro beta plate reader analysis.
For data set [5], the system named is A-427. Nature of the data set: Induction of cell cycle arrest in human A-427 cells assessed as accumulation of cells at S phase at 100 nM measured for 48 hrs by flow cytometry analysis (reference value: 4 %). It counts as functional.
In data set [6] the test system is A-427. The data set is described as follows: Induction of apoptosis in human A-427 cells assessed as necrotic cells at 200 nM measured for 48 hrs by Annexin V/PI double staining based flow cytometry analysis (reference value: 0.098%). It counts as functional.
Data set [7] has as its target T2, Cyclin-G-associated kinase (Homo sapiens) (UniProt O14976).
T2 sequence (whole entry): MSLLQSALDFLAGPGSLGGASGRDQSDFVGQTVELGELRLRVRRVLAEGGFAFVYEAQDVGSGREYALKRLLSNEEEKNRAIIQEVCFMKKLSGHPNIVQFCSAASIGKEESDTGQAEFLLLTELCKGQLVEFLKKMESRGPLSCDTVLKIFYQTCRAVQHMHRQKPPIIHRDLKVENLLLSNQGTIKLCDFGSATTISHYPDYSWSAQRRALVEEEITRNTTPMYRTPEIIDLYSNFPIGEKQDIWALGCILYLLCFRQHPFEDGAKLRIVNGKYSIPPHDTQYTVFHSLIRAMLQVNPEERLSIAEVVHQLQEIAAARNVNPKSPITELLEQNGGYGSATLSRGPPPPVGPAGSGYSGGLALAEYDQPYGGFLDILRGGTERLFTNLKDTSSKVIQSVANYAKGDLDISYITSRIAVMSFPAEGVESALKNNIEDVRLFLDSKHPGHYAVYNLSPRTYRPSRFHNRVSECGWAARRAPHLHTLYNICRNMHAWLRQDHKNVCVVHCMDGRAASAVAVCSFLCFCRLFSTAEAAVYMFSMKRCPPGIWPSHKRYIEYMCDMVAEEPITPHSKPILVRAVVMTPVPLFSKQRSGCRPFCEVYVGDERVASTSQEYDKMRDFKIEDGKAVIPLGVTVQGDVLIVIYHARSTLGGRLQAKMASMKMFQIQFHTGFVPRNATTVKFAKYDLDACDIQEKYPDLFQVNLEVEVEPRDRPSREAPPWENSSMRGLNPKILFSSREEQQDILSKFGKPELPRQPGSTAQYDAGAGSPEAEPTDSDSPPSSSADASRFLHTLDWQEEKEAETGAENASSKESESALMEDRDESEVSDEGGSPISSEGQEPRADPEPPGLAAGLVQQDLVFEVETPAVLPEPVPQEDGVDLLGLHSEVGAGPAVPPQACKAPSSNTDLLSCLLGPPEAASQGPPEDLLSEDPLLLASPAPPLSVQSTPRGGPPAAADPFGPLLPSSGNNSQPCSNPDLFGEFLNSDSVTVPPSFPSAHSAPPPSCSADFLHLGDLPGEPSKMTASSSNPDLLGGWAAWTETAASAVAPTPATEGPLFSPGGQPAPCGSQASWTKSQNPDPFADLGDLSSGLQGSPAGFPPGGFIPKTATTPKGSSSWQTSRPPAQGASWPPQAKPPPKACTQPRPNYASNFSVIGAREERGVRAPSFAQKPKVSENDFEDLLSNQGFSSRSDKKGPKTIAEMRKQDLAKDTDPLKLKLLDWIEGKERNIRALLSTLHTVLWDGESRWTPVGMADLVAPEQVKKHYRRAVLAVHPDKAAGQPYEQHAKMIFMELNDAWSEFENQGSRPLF
Nature of the data set: Inhibition of GAK (unknown origin) at 1 uM relative to control.

Chain of Wee1-like protein kinase (P30291 whole entry, the tested form may be a part): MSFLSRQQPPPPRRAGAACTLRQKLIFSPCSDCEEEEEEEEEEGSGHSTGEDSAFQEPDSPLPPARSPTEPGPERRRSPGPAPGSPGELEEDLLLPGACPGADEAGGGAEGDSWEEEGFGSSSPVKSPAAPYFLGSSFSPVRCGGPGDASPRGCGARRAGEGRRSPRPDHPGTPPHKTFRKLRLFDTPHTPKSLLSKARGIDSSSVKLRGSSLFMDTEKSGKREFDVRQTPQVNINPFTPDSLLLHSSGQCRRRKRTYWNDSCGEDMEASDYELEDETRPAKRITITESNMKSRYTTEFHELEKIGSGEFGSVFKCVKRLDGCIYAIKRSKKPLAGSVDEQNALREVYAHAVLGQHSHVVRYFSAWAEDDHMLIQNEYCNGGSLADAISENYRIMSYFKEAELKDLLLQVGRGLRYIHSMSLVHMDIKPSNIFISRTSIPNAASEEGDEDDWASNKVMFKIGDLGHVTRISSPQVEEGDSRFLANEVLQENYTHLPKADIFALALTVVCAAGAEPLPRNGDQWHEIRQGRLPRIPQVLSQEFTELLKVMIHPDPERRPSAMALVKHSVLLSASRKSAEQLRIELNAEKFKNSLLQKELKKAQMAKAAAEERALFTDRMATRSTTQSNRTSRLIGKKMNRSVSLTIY

Usually inhibition stands for the percentage by which the read-out fell short of the control. A higher inhibition goes with strong suppression. In general, half-life refers to how long it takes for the measured level to halve. Usually IC50 stands for the point on the concentration scale where inhibition reaches its midpoint. Consider `C=CCn1c(=O)c2cnc(Nc3ccc(N4CCN(C)CC4)cc3)nc2n1-c1cccc(-c2cnccn2)n1`, for which the viability at 0.4 µM with A-427 [1] is 58.3%. Moreover, the remaining at 1 h in data set [2] was determined as 33.9%. Moreover, the inhibition in data set [3] and in data set [7] was greater than 90% throughout. In data set [4], the half-life was 1.06 h. For the same compound, the IC50 at Wee1-like protein kinase was found to be 2.1 nM. The Activity is 48.5% in the data set with A-427 [5] and 4.82% in the data set on A-427 [6].

(Values after ChEMBL document CHEMBL5512688 (J Med Chem, 2024).)
